From patent US20220387602A1, “BIFUNCTIONAL DEGRADERS AND THEIR METHODS OF USE” (NOVARTIS AG, priority 2019, published 2022) come the findings set out here.

Assay [1] has as its target T1, CRBN (Homo sapiens, UniProt Q96SW2). Put plainly: CRBN displacement assay Format 1 (fluorescence polarization, BodipyFL-lenalidomide probe Compound HH). The format is binding. How it is done:
(§1) Compounds were tested in the following biochemical and cellular assays.
(§2) BodipyFL conjugated lenalidomide compound HH was used as a fluorescent probe. […] Protein and substrate were diluted in assay buffer.
All protein and probe containing solutions were handled in ‘Maxymum Recovery’ tubes (Axygen Scientific Inc., Union City, USA). […] For the plate measurements a PHERAstar reader (BMG Labtech, Offenburg, Germany) was used. The instrument was equipped with a specific optics module containing filters and dichoic mirrors for measuring the fluorescence polarization-type assay. With this module, the fluorescence of the Bodipy FL-based probe was excited at 485 nm and the emissions of the product were measured at 520 nm. The fluorescence in each well was excited by 10 flashes per measurement.
For the determination of AC50 values, the assays were performed at room temperature in 384-well plates with a total assay volume of 10.1 μL per well. The test compound was dissolved in 90% (v/v) DMSO/water. For the assays, 100 nL of the 90% (v/v) DMSO/water solution or compound solution were added per well, followed by the addition of 5 μL protein solution (protein in 1× assay buffer).
(§3) The final assay concentration of the protein was nominally 100 nM. After 45 minutes of pre-incubation at room temperature, the competition for binding was started by the addition of 5 μL probe solution (probe dissolved in assay buffer). The final concentration of the probes in the assays was 5 nM. After the addition of the probe solution, the final DMSO concentration in the assay was 0.9% (v/v). The effect of the probe on the pre-established compound-protein complex equilibrium was determined after 45 minutes (t=45 min). The AC50 value was calculated from the plot of percentage of protein saturation versus the test compound concentration by a logistics fit according to: y=A^2+(A^1−A^2)/(1+(x/AC50)^p), where y is the %-saturation value at the test compound concentration, x. A^1 is the lowest saturation value, i.e., 0%, and A^2 the maximum saturation value, i.e. 100%. The exponent, p, is the Hill coefficient.

Assay [2] addresses T1, CRBN. Nature of the assay: CRBN displacement assay Format 2a (fluorescence polarization, 1536-well, Envision reader). Format: binding. As to the method:
as §1, §2
The fluorescence of the Bodipy FL-based probe was excited at 480 nm and the emissions of the product were measured at 535 nm. The fluorescence in each well was excited by 30 flashes per measurement.
For the determination of AC50 values, assays were performed at room temperature in 1536-well plates with a total assay volume of 6.03 μL per well. The test compounds were dissolved and diluted in 100% DMSO. For the assays, 30 nL of DMSO or compound solution were added per well, followed by the addition of 3 μL protein solution (80 nM protein in 1× assay buffer).
as §3, with “nominally 40” for “nominally 100”, “of 3” for “of 5”, “solution (10 nM probe” for “solution (probe”, “the probe” for “the probes”, “was 0.5%” for “was 0.9%”

The target of another assay is T2, BTK (Homo sapiens, UniProt Q06187).
T2 construct: the BTK open reading frame (ORF) was first shuttled from a pcDNA-DEST40-BTK vector; expressed in transfected cells; host or cells: HEK293A (Invitrogen R70507), lentiviral transduction, blasticidin selection
Put plainly: BTK-GFP protein abundance flow cytometry assay in HEK293A. The format is cell-based. Particulars: 24 h; for BTK degradation Amax: % protein remaining at the concentration at which maximum degradation is seen, HEK293A; for DC50: concentration at which 50% maximal degradation was observed, HEK293A BTK-GFP sensor cells. How it is done: Degradation of BTK, CSK, ABL2, EPHA4 and YES1 was measured in HEK293A cells (Invitrogen R70507) expressing either BTK-GFP and RFP, CSK-GFP and mCherry, GFP-ABL2 and mCherry, EPHA4-GFP and mCherry, or YES1-GFP and mCherry from a stably integrated bicistronic BTK-GFP-iresRFP, CSK-GFP-CHYSEL-mCherry, GFP-ABL2-CHYSEL-mCherry, EPHA4-GFP-CHYSEL-mCherry, or YES1-GFP-CHYSEL-mCherry construct, respectively. Reduction of the GFP signal measured by flow cytometry served as readout for BTK, CSK, ABL2, EPHA4 and YES1 degradation after degrader treatment.
The mix was incubated for another 20 min at RT and then added on 1 mL of a freshly prepared suspension of HEK293FT cells in a well of a 6-well plate (concentration 1.2×10^6 cells/mL). 1 day after transfection, the medium was replaced with 1.5 mL of complete growth medium (DMEM high Glucose+10% FCS+1% L-Glutamine+1% NEAA+1% NaPyr.). 48 h post transfection supernatant containing viral transducing particles was collected and frozen at −80° C.
Infection was performed with 90 μL of collected supernatant containing viral transducing particles in 1 mL medium including 8 µg/mL polybrene. 24 h post infection, stably transfected cells were selected with blasticidin at a concentration of 8 μg/mL referred to as stable HEK293A sensor cells.
Stable HEK293A sensor cells were maintained in complete growth medium (DMEM high Glucose+10% FCS+1% L-Glutamine+1% NEAA+1% NaPyr.) with passaging performed twice per week. On Day 0, stable HEK293A sensor cells were seeded at 10,000 cells/well in a 96-well microtiter plate in 260 μL complete medium. On Day 1, cells were treated in duplicate with 10-point 1:3 dilution series of compound using the HP D300 Digital Dispenser (Tecan). DMSO concentrations were normalized across the plate to 0.1%. On Day 2, after 24 h of incubation at 37° C., treatment media was discarded, cells rinsed with 100 μL/well PBS and then detached using 40 μL trypsin/well for 5 min. Trypsin was neutralized with 100 μL/well PBS+20% FCS). Flow cytometry was performed on the samples using the BD FACS CANTO II (Becton Dickinson). Cell identification was then performed using forward (FSC) vs. side scatter (SSC) plots. Single cell discrimination is performed using SSC-Width (SSC-W) vs. SSC-Height (SSC-H) plots. Median GFP values for 5,000 single cells are used to determine BTK levels. Median GFP values from HEK293 Å-iresRFP are used as a background signal and thus defining 0% BTK signal. Median GFP values from DMSO treated HEK293 Å-BTK-GFP-iresRFP are used to define 100% BTK signal for subsequent DC50 curves (concentration at 50% BTK degradation). GFP and RFP are read in the channels called FITC and PE, respectively.
Concentration response curves plotting relative reduction of the GFP signal (measured by flow cytometry) versus 10 compound concentrations (starting concentration 10 μM, 3 fold dilution steps) of the compounds allowed generation of DC50 values. Protein abundance measured for the second generation vectors having a chysel was done in close analogy to the above described method for measuring BTK abundance.
Table 5 columns are defined as follows: DC50 refers to the concentration at which 50% maximal degradation was observed; deg Amax is the extent of degradation and the value refers to the % protein remaining at the concentration at which maximum degradation is seen.

[3] abbreviates: concentration at which 50% of reference probe Compound HH is displaced, 100 nM protein, 5 nM probe, Table 4, read-out: CRBN AC50 [μM] Format 1.
The mark [4] stands for this setting: concentration at which 50% of reference probe Compound HH is displaced, 40 nM protein, 5 nM probe, read-out: CRBN AC50 [μM] Format 2a.

T2 sequence (Q06187 whole entry): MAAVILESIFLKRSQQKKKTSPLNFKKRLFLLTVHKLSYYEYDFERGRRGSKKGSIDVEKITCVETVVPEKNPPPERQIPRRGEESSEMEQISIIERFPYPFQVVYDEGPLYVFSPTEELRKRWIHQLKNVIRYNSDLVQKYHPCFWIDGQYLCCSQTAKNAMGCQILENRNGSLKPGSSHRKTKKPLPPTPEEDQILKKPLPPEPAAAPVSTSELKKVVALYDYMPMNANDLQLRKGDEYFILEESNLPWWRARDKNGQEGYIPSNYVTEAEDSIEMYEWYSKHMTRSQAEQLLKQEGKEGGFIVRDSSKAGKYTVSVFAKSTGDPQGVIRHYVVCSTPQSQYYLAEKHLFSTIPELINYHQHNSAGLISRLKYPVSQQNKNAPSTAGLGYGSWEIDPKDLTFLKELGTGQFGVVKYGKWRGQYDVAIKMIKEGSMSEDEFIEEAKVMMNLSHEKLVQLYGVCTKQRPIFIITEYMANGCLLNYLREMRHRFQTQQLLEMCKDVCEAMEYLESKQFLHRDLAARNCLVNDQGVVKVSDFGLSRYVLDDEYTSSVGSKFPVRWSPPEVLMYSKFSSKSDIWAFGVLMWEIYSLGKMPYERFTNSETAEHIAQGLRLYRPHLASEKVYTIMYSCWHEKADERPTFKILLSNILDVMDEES
T1 sequence (Q96SW2 whole entry): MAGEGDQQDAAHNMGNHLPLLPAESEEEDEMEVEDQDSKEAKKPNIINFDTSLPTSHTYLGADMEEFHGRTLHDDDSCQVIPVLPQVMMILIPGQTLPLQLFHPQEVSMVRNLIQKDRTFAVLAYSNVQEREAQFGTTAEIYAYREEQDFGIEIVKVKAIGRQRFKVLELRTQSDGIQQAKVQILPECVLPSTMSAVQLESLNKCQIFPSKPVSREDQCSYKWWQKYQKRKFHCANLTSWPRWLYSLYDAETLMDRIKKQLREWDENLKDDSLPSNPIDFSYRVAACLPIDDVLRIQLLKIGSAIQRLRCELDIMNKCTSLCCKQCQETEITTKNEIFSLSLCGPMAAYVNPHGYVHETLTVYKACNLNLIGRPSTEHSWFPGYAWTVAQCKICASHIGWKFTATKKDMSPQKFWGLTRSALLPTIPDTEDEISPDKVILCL

`C=CCOc1cccc(N2CCC(=O)NC2=O)c1` [ILB-34, 1-(3-(allyloxy)phenyl)dihydropyrimidine-2,4(1H,3H)-dione]: the AC50 at CRBN [1] (setting [3]) was found to be 3.65 µM; on CRBN [2] (setting [4]), 1.91 µM.
Regarding `C=CCn1cccc(CN2CCC(=O)NC2=O)c1=O` [ILB-1, 1-((1-allyl-2-oxo-1,2-dihydropyridin-3-yl)methyl)dihydropyrimidine-2,4(1H,3H)-dione], the AC50 was 11 µM on CRBN [1] and 4.79 µM at CRBN [2].
For the compound `COc1ccc(C(=O)O)cc1N1CCC(=O)NC1=O` [ILB-26, 3-(2,4-dioxotetrahydropyrimidin-1(2H)-yl)-4-methoxybenzoic acid], the AC50 on CRBN [1] (setting [3]) turned out to be 2.92 µM; on CRBN [2] (setting [4]) it was 1.26 µM.
For `Cc1ccc(C(=O)O)cc1N1CCC(=O)NC1=O` [ILB-24, 3-(2,4-dioxotetrahydropyrimidin-1(2H)-yl)-4-methylbenzoic acid], in that order: 2.85 µM and 0.68 µM.
Consider `O=C1CCN(Cc2cccn(CCO)c2=O)C(=O)N1` [ILB-3, 1-((1-(2-Hydroxyethyl)-2-oxo-1,2-dihydropyridin-3-yl)methyl)dihydropyrimidine-2,4(1H,3H)-dione], for which the AC50 at CRBN [1] turned out to be 14.1 µM; at CRBN [2], 4.17 µM.
With `O=C1CCN(c2cc(C(=O)O)ccc2Cl)C(=O)N1` [ILB-25, 4-chloro-3-(2,4-dioxotetrahydropyrimidin-1(2H)-yl)benzoic acid], the AC50 stood at 1.98 µM at CRBN [1] (setting [3]) and 0.48 µM on CRBN [2] (setting [4]).
For `Cc1ccc(S(=O)(=O)NCCCCCN)cc1N1CCC(=O)NC1=O` [ILB-53, N-(5-aminopentyl)-3-(2,4-dioxotetrahydropyrimidin-1(2H)-yl)-4-methylbenzenesulfonamide], in that order: 14.9 µM and 2.16 µM.
As to `O=C1CCN(c2ccc(C#CCN3CCOC4(CCNCC4)C3)cc2)C(=O)N1` [ILB-40, 1-(4-(3-(1-oxa-4,9-diazaspiro[5.5]undecan-4-yl)prop-1-yn-1-yl)phenyl)dihydropyrimidine-2,4(1H,3H)-dione], the AC50 on CRBN [1] (setting [3]) came to 12.3 µM; at CRBN [2] (setting [4]), 3.45 µM.
On CRBN [1], `O=C1CCN(c2cc(C(=O)N3CCC(OC4CCNCC4)CC3)ccc2Cl)C(=O)N1` [ILB-60, 1-(2-Chloro-5-(4-(piperidin-4-yloxy)piperidine-1-carbonyl)phenyl)dihydropyrimidine-2,4(1H,3H)-dione] yielded an AC50 of 2.8 µM.
Consider `Cc1c(NC(=O)c2ccc(C(C)(C)O)cc2F)cc(F)cc1-c1ncnc2[nH]c(-c3ccc(CN4CCC5(CCN(CCOc6ccc(N7CCC(=O)NC7=O)c(Cl)c6)CC5)CC4)cc3)cc12` [Compound 31, N-(3-(6-(4-((9-(2-(3-chloro-4-(2,4-dioxotetrahydropyrimidin-1(2H)-yl)phenoxy)ethyl)-3,9-diazaspiro[5.5]undecan-3-yl)methyl)phenyl)-7H-pyrrolo[2,3-d]pyrimidin-4-yl)-5-fluoro-2-methylphenyl)-2-fluoro-4-(2-hydroxypropan-2-yl)benzamide], for which, at BTK, the “BTK degradation Amax” value is listed as 32.8% and the DC50 is 55.7 nM.
The matching figures for `Cc1cc(OCCN2CCC(OC3CCN(Cc4ccc(-c5cc6c(-c7cc(F)cc(NC(=O)c8ccc(C(C)(C)O)cc8F)c7C)ncnc6[nH]5)cc4)CC3)CC2)ccc1N1CCC(=O)NC1=O` [Compound 30, N-(3-(6-(4-((4-((1-(2-(4-(2,4-dioxotetrahydropyrimidin-1(2H)-yl)-3-methylphenoxy)ethyl)piperidin-4-yl)oxy)piperidin-1-yl)methyl)phenyl)-7H-pyrrolo[2,3-d]pyrimidin-4-yl)-5-fluoro-2-methylphenyl)-2-fluoro-4-(2-hydroxypropan-2-yl)benzamide]: 12.2% and 9.8 nM.
With `Cc1cc(F)c(C(=O)O)cc1N1CCC(=O)NC1=O` [ILB-29, 5-(2,4-dioxotetrahydropyrimidin-1(2H)-yl)-2-fluoro-4-methylbenzoic acid], on CRBN [1] (setting [3]), the AC50 was found to be 0.95 µM.
On to `O=C1CCN(c2c(F)cc(C#CCN3CCNCC3)cc2F)C(=O)N1` [ILB-45, 1-(2,6-difluoro-4-(3-(piperazin-1-yl)prop-1-yn-1-yl)phenyl)dihydropyrimidine-2,4(1H,3H)-dione], for which the AC50 on CRBN [1] amounted to 13.5 µM.
With `Cc1c(NC(=O)c2ccc(C(C)(C)O)cc2F)cc(F)cc1-c1ncnc2[nH]c(-c3ccc(CN4CCN(CCN5CCC(Oc6ccc(N7CCC(=O)NC7=O)cc6)CC5)CC4)cc3)cc12` [Compound 28, N-(3-(6-(4-((4-(2-(4-(4-(2,4-dioxotetrahydropyrimidin-1(2H)-yl)phenoxy)piperidin-1-yl)ethyl)piperazin-1-yl)methyl)phenyl)-7H-pyrrolo[2,3-d]pyrimidin-4-yl)-5-fluoro-2-methylphenyl)-2-fluoro-4-(2-hydroxypropan-2-yl)benzamide], at BTK, the “BTK degradation Amax” value is on record as 40% and the DC50 was found to be 9.2 nM.
